ChEMBL document CHEMBL1201862, “PubChem BioAssay data set” (2004)
Active and inactive are the calls of the source.

What was measured:
[1] = IC50 of insulin release inhibition, rat insulinoma INS-1E line, 5 mM glucose, cell-based (AID 1117331); assay type: functional
[2] = viability loss of HPDE-C7K cells – cell-based, fluorescence, HTS, primary screen (AID 431); assay type: functional; conditions: Homo sapiens
[3] = HPDE-C7 pancreatic duct cell viability loss – fluorescence, HTS (AID 430); assay type: functional, cell-based; conditions: Homo sapiens
[4] = target: T1, Sphingosine 1-phosphate receptor 2 (Homo sapiens, UniProt O95136); experiment: Dose Response Cell Based Assay for Antagonists of the S1P2 Receptor. [Related pubchem assays: 856, 736 ]; assay type: functional
[5] = YAP1 overexpression rescue of CTGF inhibition – DLD1 cells, RT-qPCR, cherry-pick, mechanism study for YAP1 pathway inhibitor project, dose response (AID 1053127); assay type: functional, cell-based; conditions: DLD-1
[6] = target: T1, Sphingosine 1-phosphate receptor 2; experiment: Dose Response Cell Based Assay for Agonists of the S1P2 Receptor. [Related pubchem assays: 729, 736, 843 ]; assay type: functional
[7] = Luminescence Cell-Based Dose Confirmation HTS to Identify Activators of 5'UTR Stem-Loop Driven Alpha-Synuclein mRNA Translation in H4 Neuroglioblastoma Cells. [Related pubchem assays: 1829 (Project Summary), 1814 (Primary HTS)]; assay type: functional
H4 = experiment: Luminescence Cell-Based Dose Response HTS to Identify Activators of 5'UTR Stem-Loop Driven Prion Protein mRNA Translation in H4 Neuroglioblastoma Cells. [Related pubchem assays: 1829 (Project Summary), 1814 (Primary HTS)]; assay type: functional; conditions: Homo sapiens
NADPH oxidase 1 = NADPH oxidase 1 (Homo sapiens, UniProt Q9Y5S8); experiment: Late-stage luminescence-based cell-based dose response assay to identify inhibitors of NADPH oxidase 1 (NOX1): Synthesized analogs.; assay type: functional
[8] = Luminescence Cell-Based Dose Response HTS to Identify Activators of Luciferase Translation or Activity in H4 […] Cells. [Related pubchem assays: 1829 (Project Summary), 1814 (Primary HTS)]; assay type: functional
[9] = IC50 of Artemis nuclease activity blockers – biochemical, fluorescence intensity, dose response (AID 720701); assay type: functional;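 note: Artemis endonuclease enzyme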
Kallikrein-7 = Kallikrein-7 (Homo sapiens, UniProt P49862); experiment: Fluorescence Intensity-based biochemical primary high throughput dose response assay to identify activators of kallikrein-7 (K7) zymogen.
[10] = viability loss in HepG2 liver cells – cell-based, ATP luminescence, cherry-pick, set 6, cytotoxicity control, dose response (AID 1053125); assay type: functional
cells [11] = experiment: cells
cells [12] = conditions: A549
cells [13] = conditions: HEK293
[14] = cytotoxicity in MITF-independent A375 cells – cell-based, CellTiter-Glo luminescence, dry powder, set 4, counter-screen for MITF inhibitor project, dose response (AID 624364); assay type: functional; conditions: A-375;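 note: A375 melanoma cells are MITF independent so this is a counter screen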
[15] = viability loss in MITF-independent A375 cells – cell-based, CellTiter-Glo luminescence, dry powder, set 2, counter-screen for MITF inhibitor project, dose response (AID 624489); assay type: functional; conditions: A-375;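 note: actives are compounds lowering A375 viability meaning general cytotoxicity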
[16] = BioA aminotransferase inhibition, coupled fluorescent readout – biochemical, coupled fluorescence displacement, 20-point, dry powder, dose response (AID 743357); assay type: functional
SUMO-activating enzyme [17] = target: T2, SUMO-activating enzyme (Homo sapiens, UniProt Q9UBT2); experiment: blockers of UBC9-mediated SUMO conjugation – biochemical, AlphaScreen, SUMOylation inhibitor project, confirmation (AID 2018); assay type: functional
[18] = target: E3 ubiquitin-protein ligase UHRF1 (Homo sapiens, UniProt Q96T88); experiment: Counterscreen for inhibitors of 5-meCpG-binding domain protein 2 (MBD2): TRFRET-based biochemical high throughput dose response assay to identify inhibitors of binding of ubiquitin-like with PHD and ring finger domains 1 (UHRF1) to methylated oligonucleotide.
Aminopeptidase N = target: T3, Aminopeptidase N (Plasmodium falciparum FcB1/Columbia, UniProt O96935); experiment: malaria alanyl aminopeptidase activity blockers – biochemical, fluorogenic H-Leu-NHMec substrate, 1536-well (AID 1445); parameters: species or system Plasmodium falciparum 3D7, 3D7
T3 sequence (O96935 whole entry): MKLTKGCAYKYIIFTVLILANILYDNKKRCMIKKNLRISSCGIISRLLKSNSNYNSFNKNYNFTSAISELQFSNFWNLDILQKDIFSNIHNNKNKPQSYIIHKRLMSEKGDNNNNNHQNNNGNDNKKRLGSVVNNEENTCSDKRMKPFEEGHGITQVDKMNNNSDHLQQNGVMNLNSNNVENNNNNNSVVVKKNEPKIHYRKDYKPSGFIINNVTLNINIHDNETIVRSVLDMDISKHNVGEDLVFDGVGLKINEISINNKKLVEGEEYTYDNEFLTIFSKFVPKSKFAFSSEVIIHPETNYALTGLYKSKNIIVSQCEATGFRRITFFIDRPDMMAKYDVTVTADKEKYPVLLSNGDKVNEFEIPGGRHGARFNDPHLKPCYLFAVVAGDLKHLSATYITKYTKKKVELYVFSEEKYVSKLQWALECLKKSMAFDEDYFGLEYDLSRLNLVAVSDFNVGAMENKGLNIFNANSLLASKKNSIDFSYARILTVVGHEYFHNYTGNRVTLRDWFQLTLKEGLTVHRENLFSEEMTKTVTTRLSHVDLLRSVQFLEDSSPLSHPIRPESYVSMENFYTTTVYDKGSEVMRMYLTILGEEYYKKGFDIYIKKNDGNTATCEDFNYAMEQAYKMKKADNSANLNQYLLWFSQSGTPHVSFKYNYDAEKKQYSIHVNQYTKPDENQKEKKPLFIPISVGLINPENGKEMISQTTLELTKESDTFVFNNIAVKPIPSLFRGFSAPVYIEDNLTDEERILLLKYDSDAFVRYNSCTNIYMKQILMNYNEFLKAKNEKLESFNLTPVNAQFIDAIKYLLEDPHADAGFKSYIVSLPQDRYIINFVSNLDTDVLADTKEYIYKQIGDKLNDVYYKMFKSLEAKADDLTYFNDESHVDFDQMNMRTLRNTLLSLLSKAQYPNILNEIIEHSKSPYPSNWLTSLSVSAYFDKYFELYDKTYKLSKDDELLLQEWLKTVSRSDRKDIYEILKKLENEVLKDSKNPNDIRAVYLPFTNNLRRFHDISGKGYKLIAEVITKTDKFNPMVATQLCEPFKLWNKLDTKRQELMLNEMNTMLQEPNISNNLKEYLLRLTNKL

SUMO-activating enzyme [19] = target: T2, SUMO-activating enzyme; experiment: blockers of SAE1/SAE2–UBC9 SUMO transfer – biochemical, HTRF, uHTS, primary screen (AID 2006); assay type: protein-complex assay

T1 sequence (O95136 whole entry): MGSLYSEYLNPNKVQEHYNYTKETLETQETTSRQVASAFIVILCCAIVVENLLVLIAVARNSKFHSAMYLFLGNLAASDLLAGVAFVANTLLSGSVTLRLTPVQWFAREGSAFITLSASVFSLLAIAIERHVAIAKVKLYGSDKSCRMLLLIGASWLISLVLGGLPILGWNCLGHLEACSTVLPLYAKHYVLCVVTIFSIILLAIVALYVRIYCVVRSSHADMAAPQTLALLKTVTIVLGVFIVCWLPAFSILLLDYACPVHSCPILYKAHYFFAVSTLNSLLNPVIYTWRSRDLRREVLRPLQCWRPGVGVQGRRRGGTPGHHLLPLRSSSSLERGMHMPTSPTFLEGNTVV
T2 sequence (Q9UBE0 whole entry, the tested form may be a part): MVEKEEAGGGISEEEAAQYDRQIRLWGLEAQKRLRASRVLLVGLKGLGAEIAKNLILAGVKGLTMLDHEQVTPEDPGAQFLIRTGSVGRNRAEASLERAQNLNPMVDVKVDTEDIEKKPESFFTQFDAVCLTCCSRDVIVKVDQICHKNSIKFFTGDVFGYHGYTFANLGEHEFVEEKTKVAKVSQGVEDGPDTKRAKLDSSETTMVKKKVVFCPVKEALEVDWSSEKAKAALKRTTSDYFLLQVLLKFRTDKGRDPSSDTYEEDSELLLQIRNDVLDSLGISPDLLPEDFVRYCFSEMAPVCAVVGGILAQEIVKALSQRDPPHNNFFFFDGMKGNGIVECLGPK
T2 sequence (Q9UBT2 whole entry, the tested form may be a part): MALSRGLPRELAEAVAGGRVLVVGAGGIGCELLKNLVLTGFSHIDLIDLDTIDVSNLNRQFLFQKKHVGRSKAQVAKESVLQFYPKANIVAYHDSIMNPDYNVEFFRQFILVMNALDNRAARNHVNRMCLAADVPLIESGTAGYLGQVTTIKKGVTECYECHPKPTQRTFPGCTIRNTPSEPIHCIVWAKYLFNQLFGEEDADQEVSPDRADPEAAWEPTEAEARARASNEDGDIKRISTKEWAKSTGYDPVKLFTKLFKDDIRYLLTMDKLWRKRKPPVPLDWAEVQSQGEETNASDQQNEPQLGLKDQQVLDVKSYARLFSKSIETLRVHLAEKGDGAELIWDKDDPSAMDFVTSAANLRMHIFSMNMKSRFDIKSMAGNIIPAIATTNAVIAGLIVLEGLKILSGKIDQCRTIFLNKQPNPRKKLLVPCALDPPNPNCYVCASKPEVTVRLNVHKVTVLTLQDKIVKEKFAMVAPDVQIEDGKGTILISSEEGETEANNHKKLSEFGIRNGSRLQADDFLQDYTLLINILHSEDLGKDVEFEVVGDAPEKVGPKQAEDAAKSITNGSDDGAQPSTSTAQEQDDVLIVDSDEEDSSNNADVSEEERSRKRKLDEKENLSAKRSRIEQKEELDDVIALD
Chain of NADPH oxidase 1 (Q9Y5S8 whole entry): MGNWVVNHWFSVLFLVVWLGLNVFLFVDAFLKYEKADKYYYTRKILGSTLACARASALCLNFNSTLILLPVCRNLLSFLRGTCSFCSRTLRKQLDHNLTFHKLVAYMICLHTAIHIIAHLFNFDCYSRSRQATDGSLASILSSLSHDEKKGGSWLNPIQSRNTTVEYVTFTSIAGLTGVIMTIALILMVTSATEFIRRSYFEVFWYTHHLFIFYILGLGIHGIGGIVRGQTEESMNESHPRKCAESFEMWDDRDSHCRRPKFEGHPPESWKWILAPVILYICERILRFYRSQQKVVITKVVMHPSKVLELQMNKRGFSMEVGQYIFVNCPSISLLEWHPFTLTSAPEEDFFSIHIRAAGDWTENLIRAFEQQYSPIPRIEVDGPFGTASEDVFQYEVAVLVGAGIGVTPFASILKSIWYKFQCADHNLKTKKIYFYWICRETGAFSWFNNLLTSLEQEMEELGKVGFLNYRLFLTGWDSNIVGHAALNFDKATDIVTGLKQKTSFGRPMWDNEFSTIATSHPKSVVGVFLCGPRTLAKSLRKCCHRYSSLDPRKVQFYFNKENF
Chain of E3 ubiquitin-protein ligase UHRF1 (Q96T88 whole entry, the tested form may be a part): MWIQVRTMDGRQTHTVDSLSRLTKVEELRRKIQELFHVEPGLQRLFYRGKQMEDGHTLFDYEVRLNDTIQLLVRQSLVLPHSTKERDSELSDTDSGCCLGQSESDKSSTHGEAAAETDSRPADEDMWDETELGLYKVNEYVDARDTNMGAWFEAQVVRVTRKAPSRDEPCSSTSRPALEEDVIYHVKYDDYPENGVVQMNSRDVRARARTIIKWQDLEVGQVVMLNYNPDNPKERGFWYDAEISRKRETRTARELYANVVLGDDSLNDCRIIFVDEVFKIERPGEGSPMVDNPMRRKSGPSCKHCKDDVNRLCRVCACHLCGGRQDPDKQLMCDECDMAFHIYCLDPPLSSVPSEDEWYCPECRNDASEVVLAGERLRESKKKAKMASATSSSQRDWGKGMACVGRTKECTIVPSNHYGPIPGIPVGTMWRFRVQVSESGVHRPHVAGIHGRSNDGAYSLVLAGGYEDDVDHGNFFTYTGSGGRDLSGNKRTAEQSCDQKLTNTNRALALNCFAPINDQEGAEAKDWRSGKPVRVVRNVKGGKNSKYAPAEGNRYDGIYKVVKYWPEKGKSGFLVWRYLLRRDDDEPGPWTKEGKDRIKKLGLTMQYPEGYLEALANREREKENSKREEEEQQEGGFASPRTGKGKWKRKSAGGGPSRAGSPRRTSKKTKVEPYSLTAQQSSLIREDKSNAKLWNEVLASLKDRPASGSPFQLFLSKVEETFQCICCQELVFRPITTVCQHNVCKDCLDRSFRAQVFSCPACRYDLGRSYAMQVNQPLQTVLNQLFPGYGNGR
Chain of Kallikrein-7 (P49862 whole entry): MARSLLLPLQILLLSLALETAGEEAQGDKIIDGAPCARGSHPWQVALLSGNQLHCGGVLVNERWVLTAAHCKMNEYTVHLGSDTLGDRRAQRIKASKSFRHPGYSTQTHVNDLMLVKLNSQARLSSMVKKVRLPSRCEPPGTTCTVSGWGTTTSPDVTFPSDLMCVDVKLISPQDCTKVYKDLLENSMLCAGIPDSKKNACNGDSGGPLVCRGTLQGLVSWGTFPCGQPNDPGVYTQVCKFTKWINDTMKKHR

## CN1C[C@H](CNC(=O)OCc2ccccc2)C[C@@H]2c3cccc4c3c(cn4C)C[C@H]21 [METERGOLINE]
[1]
  IC50: > 33.3 µM (inactive)
[2]
  EC50: > 20 µM (not active)
[3]
  EC50: > 20 µM (not active)

## O=C(O)c1sc2cc(C(F)(F)F)cnc2c1-c1ccccn1
[4]
  IC50: > 30 µM (not active)

## Cc1ccccc1-c1ccc([C@H]2[C@@H](CO)N3CCCCN(S(=O)(=O)Cc4ccccc4)C[C@@H]23)cc1
[5]
  AC50: > 26 µM (inactive)

## O=c1c(-c2nc3ccccc3s2)cccn1Cc1ccc(Cl)c(Cl)c1
[6]
  EC50: 2.18 µM (active)

## c1ccc2c(c1)Nc1cc3ccccc3cc1S2
[7]
  EC50: 98.5 µM (active)
H4
  EC50: 5.77 µM (active)
NADPH oxidase 1
  IC50: 7.58 µM (active)
[8]
  EC50: 6.01 µM (active)

## Cc1ccc(C(=O)N/C(=C\c2ccc(-c3cc(Cl)ccc3Cl)o2)C(=O)NCc2cccnc2)cc1
[9]
  IC50: > 20 µM (inactive)

## COc1ccc(OC)c(/C=N\NC(=O)c2c(C)nc3cc(C)ccn23)c1
Kallikrein-7
  EC50: > 69.6 µM (inactive)

## N=c1oc2cc(O)ccc2cc1C(=O)Nc1ccc(Cl)cc1
[10]
  AC50: > 52 µM (inactive)
Cells [11]
  AC50: 1.95 µM (active)
Cells [12]
  AC50: > 52 µM (inactive)
Cells [13]
  AC50: > 52 µM (inactive)

## C=CCNC1=C(N2CCN(CC)CC2)C(=O)c2ccccc2C1=O
[14]
  AC50: 29.3 µM (active)
[15]
  AC50: 13.8 µM (active)

## COc1ccc(C(=O)N2CCN(c3ccc(C(C)=O)cc3)CC2)cc1OC
[16]
  AC50: 11.7 µM (active)

## CCCN(C(=O)c1cc2c(s1)CCC2)c1c(N)n(Cc2ccccc2)c(=O)[nH]c1=O
SUMO-activating enzyme [17]
  IC50: 16.7 µM (active)
[18]
  IC50: > 43.8 µM (inactive)
Aminopeptidase N
  IC50: 77.2 µM (active)
SUMO-activating enzyme [19]
  IC50: 37.7 µM (active)
